In one assay the target is T1, δ opioid receptors (Mus musculus, UniProt P32300).
T1 construct: Bioassays Using Isolated Organ Preparations; from tissue; host or cells: mouse vas deferens (isolated organ)
Put plainly: Mouse vas deferens (MVD) bioassay, antagonism of electrically evoked contraction inhibition by δ-selective agonists. The class given is tissue-based. To be noted: MVD assay, means of 3-8 determinations. The text has this: (§1) a) Biosassys based on inhibition of electrically evoked contractions of the mouse vas deferens (MVD) and of the guinea pig ileum (GPI). In the GPI assay the opioid effect is primarily mediated by μ opioid receptors, whereas in the MVD assay the inhibition of the contractions is mostly due to interaction with δ opioid receptors.
(§2) The GPI and MVD bioassays were carded out as reported in P. W. Schiller et al., Biochem. Biophys. Res. Commun 85, 1332-1338 (1978) and J. Di Maio et al., J. Med. Chem. 25, 1432-1438 (1982). A log dose-response curve was determind with [Leu^5 ]enkephalin as standard for each ileum and vas preparation, and IC50 values of the compounds being tested were normalized according to A. A Waterfield et al., Eur. J. Pharmacol. 58, 11-18 (1979). […] These determinations were made with the MVD assay, using three different δ-selective agonists ([Leu^5 ] enkephalin, DPDPE and [D-Ala^2 ]deltorphin I].

Assay [1] has as its target T2, μ opioid receptors (Cavia porcellus, UniProt P97266). Put plainly: Guinea pig ileum (GPI) bioassay, inhibition of electrically evoked contractions. The note with it: agonist potency. The format is cell-based.
Source text: as §1, §2

For another assay, the target named is T3, μ opioid receptor (Rattus norvegicus, UniProt P33535).
T3 construct: Male Sprague-Dawley rats (300-350 g) from the Canadian Breeding Laboratories were decapitated and after removal of the cerebellum the brains were homogenized; from tissue; host or cells: rat brain (without cerebellum) membranes, male Sprague-Dawley
The experiment in a line: μ opioid receptor binding assay, displacement of [3H]DAMGO from rat brain membranes. An excerpt:
(§3) In the case of κ-ligands guinea pig brain homogenates were used, since the relative proportion of κ-binding sites is higher in guinea pig brain than in rat brain. The experimental procedure being used in our laboratory represents a modified version of the binding assay described by Pasternak et al. (Mol. Pharmacol. 11, 340-351, (1975)). Male Sprague-Dawley rats (300-350 g) from the Canadian Breeding Laboratories were decapitated and after removal of the cerebellum the brains were homogenized in 30 volumes of ice-cold standard buffer (50 mM Tris-HCl, pH 7.7). After centrifugation at 30,000×g for 30 min at 4° C. the membranes were reconstituted in the original volume of standard buffer and incubated for 30 min at 37° C. (to realease bound endogenous ligands). […] The incubation was terminated by filtration through Batman GF/B filters under vacuum at 4° C. Following two washings with 5 ml portions of ice-cold standard buffer the filters were transferred to scintillation vials and treated with 1 ml Protosol (New England Nuclear) for 30 min prior to the addition of 0.5 ml acetic acid and 10 ml Aquasol (New England Nuclear). After shaking for 30 min the vials were counted at an efficiency of 40-45%. All experiments were performed in duplicates and repeated at least three times. […] Values of half-maximal inhibition (IC50) of specific binding were obtained graphically from semilogarithmic plots. From the measured IC50-values, binding inhibition constants (Ki) were then calculated based on Cheng and Prusoff's equation (Biochem, Pharmacol. 22, 3099-3102 (1973)). Ratios of the Ki -values in the μ-, δ- and κ-representative binding assays are a measure of the receptor selectivety of the compound under investigation (e.g. Ki^μ /Ki^δ indicates the selectivity for δ-receptors versus μ-receptors).

Another assay deals with T4, δ opioid receptor (Rattus norvegicus, UniProt P33533).
T4 construct: Male Sprague-Dawley rats (300-350 g) from the Canadian Breeding Laboratories were decapitated and after removal of the cerebellum the brains were homogenized; from tissue; host or cells: rat brain (without cerebellum) membranes, male Sprague-Dawley
The experiment in a line: δ opioid receptor binding assay, displacement of δ-selective radioligand from rat brain membranes. The note with it: for Ki^μ /Ki^δ: δ-selectivity ratio.
Source text: as §3

Assay [2] has as its target T2, μ opioid receptors. To be noted: literature value; cited from earlier work.
The mark [3] stands for this setting: Ke (nM) against DPDPE, δ agonist DPDPE.
Where [4] appears, read: Ke (nM) against [D-Ala2]deltorphin I, δ agonist [D-Ala2]deltorphin I.
The mark [5] stands for this setting: Ke (nM) against [Leu5]Enkephalin, δ agonist [Leu5]enkephalin.

Like-named read-outs stand apart in the source and are kept apart here. Peptide text beside a SMILES is read from it.

For orientation: IC50 means the point on the concentration scale where inhibition reaches its midpoint. Lower therefore signals higher potency. In general, Ki refers to the dissociation constant of the complex between target and ligand, obtained from inhibition or displacement.

T3 sequence (P33535 whole entry): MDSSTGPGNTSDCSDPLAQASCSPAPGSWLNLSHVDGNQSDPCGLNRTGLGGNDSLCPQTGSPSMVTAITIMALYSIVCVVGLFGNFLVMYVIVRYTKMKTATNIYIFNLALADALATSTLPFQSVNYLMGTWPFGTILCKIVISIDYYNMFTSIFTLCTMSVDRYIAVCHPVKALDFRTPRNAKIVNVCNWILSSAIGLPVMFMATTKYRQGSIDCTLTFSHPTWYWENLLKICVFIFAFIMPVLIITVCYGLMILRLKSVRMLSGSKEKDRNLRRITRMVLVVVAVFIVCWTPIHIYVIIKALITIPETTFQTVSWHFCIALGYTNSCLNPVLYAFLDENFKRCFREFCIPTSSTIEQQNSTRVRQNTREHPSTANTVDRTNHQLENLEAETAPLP
T1 sequence (P32300 whole entry): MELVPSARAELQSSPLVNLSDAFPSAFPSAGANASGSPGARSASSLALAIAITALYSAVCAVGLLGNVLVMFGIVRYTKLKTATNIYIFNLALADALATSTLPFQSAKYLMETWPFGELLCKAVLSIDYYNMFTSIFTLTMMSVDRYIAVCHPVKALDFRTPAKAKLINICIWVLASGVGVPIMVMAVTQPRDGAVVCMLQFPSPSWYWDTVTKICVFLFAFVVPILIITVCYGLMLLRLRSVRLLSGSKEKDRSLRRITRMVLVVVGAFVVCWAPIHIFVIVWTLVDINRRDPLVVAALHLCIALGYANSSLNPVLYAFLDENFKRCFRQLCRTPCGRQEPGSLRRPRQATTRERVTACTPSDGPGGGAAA
T4 sequence (P33533 whole entry): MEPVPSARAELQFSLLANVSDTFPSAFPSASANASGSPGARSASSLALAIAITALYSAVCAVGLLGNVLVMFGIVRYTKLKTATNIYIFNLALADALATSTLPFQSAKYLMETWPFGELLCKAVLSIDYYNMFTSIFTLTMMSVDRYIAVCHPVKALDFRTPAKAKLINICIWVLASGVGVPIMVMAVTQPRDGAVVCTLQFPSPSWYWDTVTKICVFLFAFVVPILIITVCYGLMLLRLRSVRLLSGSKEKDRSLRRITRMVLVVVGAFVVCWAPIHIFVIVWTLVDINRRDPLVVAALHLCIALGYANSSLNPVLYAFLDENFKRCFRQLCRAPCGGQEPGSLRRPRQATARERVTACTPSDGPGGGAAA
T2 sequence (P97266 whole entry, looked up): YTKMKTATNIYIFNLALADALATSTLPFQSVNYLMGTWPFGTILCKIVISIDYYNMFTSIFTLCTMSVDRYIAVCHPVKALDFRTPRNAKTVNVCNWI

Take `Cc1cc(O)cc(C)c1C[C@H](N)C(=O)N1Cc2ccccc2C[C@H]1CN[C@@H](Cc1ccccc1)C(=O)N[C@@H](Cc1ccccc1)C(N)=O` [HDmtTic.psi.[CH2NH]PhePheNH2, H-Dmt-Tic.PSI.[CH2 --NH]Phe-Phe-NH2]: the Kb on δ opioid receptors (setting [3]) amounted to 0.42 nM; on δ opioid receptors (setting [4]) it was 0.486 nM; at δ opioid receptors (setting [5]), 0.47 nM. The compound further yielded an IC50 at μ opioid receptors [1] of 7.71 nM.

Consider `CC(C)[C@H](NC(=O)[C@H](Cc1ccccc1)NC(=O)[C@H](Cc1ccccc1)NC(=O)[C@@H]1Cc2ccccc2CN1C(=O)[C@@H](N)Cc1ccc(O)cc1)C(=O)N[C@H](C(=O)NCC(N)=O)C(C)C` [HTyrTicPhePheValValGlyNH2, H-Tyr-Tic-Phe-Phe-Val-Val-Gly-NH2] (HELM PEPTIDE1{Y.[Tic].F.F.V.V.G.[am]}$$$$V2.0), for which the Kb at δ opioid receptors (setting [3]) worked out at 6.36 nM; at δ opioid receptors (setting [4]), 4.96 nM; on δ opioid receptors (setting [5]), 6.48 nM. Further, the Ki at μ opioid receptor was 3290 nM; on δ opioid receptor it was 1.43 nM. Also, the “Ki^μ /Ki^δ” value on δ opioid receptor is recorded as 2300.

Consider `N[C@@H](Cc1ccc(O)cc1)C(=O)N1Cc2ccccc2C[C@H]1C(=O)N[C@H](C(=O)N[C@@H](Cc1ccccc1)C(=O)O)c1ccccc1` [HTyrTicPhgPheOH, H-Tyr-Tic-Phg-Phe-OH] (HELM PEPTIDE1{Y.[Tic].[Phg].F}$$$$V2.0), for which the Kb on δ opioid receptors (setting [3]) turned out to be 21.5 nM; at δ opioid receptors (setting [4]), 8.31 nM; on δ opioid receptors (setting [5]), 13.8 nM. Moreover, the Ki amounted to 29000 nM at μ opioid receptor and 3.01 nM at δ opioid receptor. Besides, the “Ki^μ /Ki^δ” value at δ opioid receptor is recorded as 9630.

In the case of `Oc1ccc2c3c1O[C@H]1c4[nH]c5ccccc5c4C[C@@]4(O)[C@@H](C2)N(CC2CC2)CC[C@]314` [Naltrindole, naltrindole, reference compound], the Kb turned out to be 0.85 nM on δ opioid receptors (setting [5]); 0.632 nM at δ opioid receptors (δ agonist DPDPE, read-out: Ke (nM) against DPDPE); 0.636 nM on δ opioid receptors (δ agonist [D-Ala2]deltorphin I, read-out: Ke (nM) against [D-Ala2]deltorphin I). The “Ke (μ antagonist) in the guinea pig ileum (GPI) assay” value on μ opioid receptors [2] is on record as 29 nM.

For `CCCCCCN[C@@H](Cc1ccc(O)cc1)C(=O)N1Cc2ccccc2C[C@H]1C(=O)N[C@@H](Cc1ccccc1)C(=O)N[C@@H](Cc1ccccc1)C(=O)O` [Tyr(N^α Hex)-TicPhePheOH, Tyr(N^α Hex)-Tic-Phe-Phe-OH], the Kb was 4.28 nM at δ opioid receptors (setting [3]), 10.6 nM at δ opioid receptors (setting [4]) and 9.37 nM on δ opioid receptors (setting [5]). The results for the Ki at μ opioid receptor and on δ opioid receptor were 1080 nM and 0.951 nM, respectively.

For the compound `CN[C@@H](Cc1ccc(O)cc1)C(=O)N1Cc2ccccc2C[C@H]1C(=O)N[C@@H](Cc1ccccc1)C(=O)N[C@@H](Cc1ccccc1)C(=O)O` [Tyr(N^α Me)-TicPhePheOH, Tyr(N^α Me)-Tic-Phe-Phe-OH] (HELM PEPTIDE1{[meY].[Tic].F.F}$$$$V2.0), the Kb on δ opioid receptors (setting [3]) came to 1.22 nM; at δ opioid receptors (setting [4]), 0.436 nM; at δ opioid receptors (setting [5]), 1.01 nM. Besides, the Ki at μ opioid receptor was 13400 nM; at δ opioid receptor, 1.29 nM.

The record behind these values is patent US5602099A, “δ opioid receptor antagonists” (Aktiebolaget Astra, priority 1993, dated 1997).
